In ChEMBL document CHEMBL1641470, “New azoles with antifungal activity: Design, synthesis, and molecular docking” (2011):
Converted amounts (≈) assume the structure as drawn.

Tests used:
Format in all cases: functional
Aspergillus fumigatus = experiment: Antifungal activity against Aspergillus fumigatus by broth microdilution method
Candida albicans = experiment: Antifungal activity against Candida albicans ATCC Y0109 after 24 hrs by broth microdilution method
Nannizzia gypsea = experiment: Antifungal activity against Microsporum gypseum by broth microdilution method
Cryptococcus neoformans = experiment: Antifungal activity against Cryptococcus neoformans ATCC BLS108 after 72 hrs by broth microdilution method
Trichophyton rubrum = experiment: Antifungal activity against Trichophyton rubrum by broth microdilution method
Candida tropicalis = experiment: Antifungal activity against Candida tropicalis by broth microdilution method
Candida parapsilosis = experiment: Antifungal activity against Candida parapsilosis by broth microdilution method; details: Lodderomyces parapsilosis
Fusarium = experiment: Antifungal activity against Fusarium by broth microdilution method

Row | MIC80 (Aspergillus fumigatus) | MIC80 (Candida albicans) | MIC80 (Nannizzia gypsea) | MIC80 (Cryptococcus neoformans) | MIC80 (Trichophyton rubrum) | MIC80 (Candida tropicalis) | MIC80 (Candida parapsilosis) | MIC80 (Fusarium) | SMILES
1 | 4 mg/L (≈ 7.11 µM) | 0.0156 mg/L (≈ 0.0277 µM) | 0.0156 mg/L (≈ 0.0277 µM) | 0.25 mg/L (≈ 0.444 µM) | 0.25 mg/L (≈ 0.444 µM) | 0.25 mg/L (≈ 0.444 µM) | 0.25 mg/L (≈ 0.444 µM) | 1 mg/L (≈ 1.78 µM) | O=C(/C=C/c1cccc(F)c1)Nc1ccc(N2CCN(CC(O)(Cn3cncn3)c3ccc(F)cc3F)CC2)cc1 (stereo not drawn)
2 | 16 mg/L (≈ 25.7 µM) | 0.0625 mg/L (≈ 0.1 µM) | 1 mg/L (≈ 1.6 µM) | 1 mg/L (≈ 1.6 µM) | 0.0625 mg/L (≈ 0.1 µM) | 0.25 mg/L (≈ 0.401 µM) | 0.25 mg/L (≈ 0.401 µM) | 1 mg/L (≈ 1.6 µM) | O=C(/C=C/c1cccc(Br)c1)Nc1ccc(N2CCN(CC(O)(Cn3cncn3)c3ccc(F)cc3F)CC2)cc1 (stereo not drawn)
3 | 16 mg/L (≈ 29.4 µM) | 0.0156 mg/L (≈ 0.0286 µM) | 0.25 mg/L (≈ 0.459 µM) | 0.25 mg/L (≈ 0.459 µM) | 0.0039 mg/L (≈ 0.00716 µM) | 0.0625 mg/L (≈ 0.115 µM) | 0.0625 mg/L (≈ 0.115 µM) | 0.0625 mg/L (≈ 0.115 µM) | O=C(/C=C/c1ccccc1)Nc1ccc(N2CCN(CC(O)(Cn3cncn3)c3ccc(F)cc3F)CC2)cc1 (stereo not drawn)
4 | 4 mg/L (≈ 6.91 µM) | 0.0039 mg/L (≈ 0.00674 µM) | 0.0156 mg/L (≈ 0.0269 µM) | 0.25 mg/L (≈ 0.432 µM) | 0.0156 mg/L (≈ 0.0269 µM) | 0.0625 mg/L (≈ 0.108 µM) | 0.25 mg/L (≈ 0.432 µM) | 1 mg/L (≈ 1.73 µM) | O=C(/C=C/c1ccccc1Cl)Nc1ccc(N2CCN(CC(O)(Cn3cncn3)c3ccc(F)cc3F)CC2)cc1 (stereo not drawn)
5 | 64 mg/L (≈ 111 µM) | 0.0625 mg/L (≈ 0.108 µM) | 0.0156 mg/L (≈ 0.0269 µM) | 1 mg/L (≈ 1.73 µM) | 1 mg/L (≈ 1.73 µM) | 0.25 mg/L (≈ 0.432 µM) | 1 mg/L (≈ 1.73 µM) | 64 mg/L (≈ 111 µM) | O=C(/C=C/c1cccc(Cl)c1)Nc1ccc(N2CCN(CC(O)(Cn3cncn3)c3ccc(F)cc3F)CC2)cc1 (stereo not drawn)

Second part, the molecule before the results:

Row | SMILES | MIC80 (Aspergillus fumigatus) | MIC80 (Candida albicans) | MIC80 (Nannizzia gypsea) | MIC80 (Cryptococcus neoformans) | MIC80 (Trichophyton rubrum) | MIC80 (Candida tropicalis) | MIC80 (Candida parapsilosis) | MIC80 (Fusarium)
6 | N#Cc1ccc(/C=C/C(=O)Nc2ccc(N3CCN(CC(O)(Cn4cncn4)c4ccc(F)cc4F)CC3)c(F)c2)cc1 (stereo not drawn) | > 64 mg/L | 0.25 mg/L (≈ 0.425 µM) | 4 mg/L (≈ 6.81 µM) | 1 mg/L (≈ 1.7 µM) | 4 mg/L (≈ 6.81 µM) | 1 mg/L (≈ 1.7 µM) | 1 mg/L (≈ 1.7 µM) | 64 mg/L (≈ 109 µM)
7 | N#Cc1cccc(/C=C/C(=O)Nc2ccc(N3CCN(CC(O)(Cn4cncn4)c4ccc(F)cc4F)CC3)cc2)c1 (stereo not drawn) | > 64 mg/L | 0.0156 mg/L (≈ 0.0274 µM) | 0.0625 mg/L (≈ 0.11 µM) | 1 mg/L (≈ 1.76 µM) | 1 mg/L (≈ 1.76 µM) | 0.25 mg/L (≈ 0.439 µM) | 0.25 mg/L (≈ 0.439 µM) | 16 mg/L (≈ 28.1 µM)
8 | COc1ccc(OC)c(/C=C/C(=O)Nc2ccc(N3CCN(CC(O)(Cn4cncn4)c4ccc(F)cc4F)CC3)c(F)c2)c1 (stereo not drawn) | > 64 mg/L | 0.0625 mg/L (≈ 0.1 µM) | 1 mg/L (≈ 1.61 µM) | 1 mg/L (≈ 1.61 µM) | 0.0625 mg/L (≈ 0.1 µM) | 0.25 mg/L (≈ 0.402 µM) | 1 mg/L (≈ 1.61 µM) | 64 mg/L (≈ 103 µM)
9 | O=C(/C=C/c1ccccc1F)Nc1ccc(N2CCN(CC(O)(Cn3cncn3)c3ccc(F)cc3F)CC2)c(F)c1 (stereo not drawn) | 4 mg/L (≈ 6.89 µM) | 0.25 mg/L (≈ 0.431 µM) | 0.25 mg/L (≈ 0.431 µM) | 0.25 mg/L (≈ 0.431 µM) | 0.0625 mg/L (≈ 0.108 µM) | 0.0625 mg/L (≈ 0.108 µM) | 0.0625 mg/L (≈ 0.108 µM) | 1 mg/L (≈ 1.72 µM)
10 | O=C(/C=C/c1ccc(Br)cc1)Nc1ccc(N2CCN(CC(O)(Cn3cncn3)c3ccc(F)cc3F)CC2)c(F)c1 (stereo not drawn) | 1 mg/L (≈ 1.56 µM) | 0.25 mg/L (≈ 0.39 µM) | 0.0625 mg/L (≈ 0.0974 µM) | 0.0156 mg/L (≈ 0.0243 µM) | 0.0625 mg/L (≈ 0.0974 µM) | 0.0156 mg/L (≈ 0.0243 µM) | 0.0625 mg/L (≈ 0.0974 µM) | 1 mg/L (≈ 1.56 µM)
11 | O=C(/C=C/c1cccc(F)c1)Nc1ccc(N2CCN(CC(O)(Cn3cncn3)c3ccc(F)cc3F)CC2)c(F)c1 (stereo not drawn) | 4 mg/L (≈ 6.89 µM) | 0.25 mg/L (≈ 0.431 µM) | 0.25 mg/L (≈ 0.431 µM) | 0.25 mg/L (≈ 0.431 µM) | 0.25 mg/L (≈ 0.431 µM) | 0.25 mg/L (≈ 0.431 µM) | 0.0156 mg/L (≈ 0.0269 µM) | 0.25 mg/L (≈ 0.431 µM)
12 | O=C(/C=C/c1cccc(Br)c1)Nc1ccc(N2CCN(CC(O)(Cn3cncn3)c3ccc(F)cc3F)CC2)c(F)c1 (stereo not drawn) | 4 mg/L (≈ 6.24 µM) | 1 mg/L (≈ 1.56 µM) | 0.25 mg/L (≈ 0.39 µM) | 0.0156 mg/L (≈ 0.0243 µM) | 0.25 mg/L (≈ 0.39 µM) | 0.0625 mg/L (≈ 0.0974 µM) | 0.25 mg/L (≈ 0.39 µM) | 1 mg/L (≈ 1.56 µM)
13 | CCC(C)n1ncn(-c2ccc(N3CCN(c4ccc(OCC5COC(Cn6cncn6)(c6ccc(Cl)cc6Cl)O5)cc4)CC3)cc2)c1=O (stereo not drawn) [ITRACONAZOLE] | 1 mg/L (≈ 1.42 µM) | 1 mg/L (≈ 1.42 µM) | 0.0152 mg/L (≈ 0.0215 µM) | 1 mg/L (≈ 1.42 µM) | 0.0152 mg/L (≈ 0.0215 µM) | 0.25 mg/L (≈ 0.354 µM) | 0.25 mg/L (≈ 0.354 µM) | 0.25 mg/L (≈ 0.354 µM)
14 | O=C(/C=C/c1ccc(Cl)cc1)Nc1ccc(N2CCN(CC(O)(Cn3cncn3)c3ccc(F)cc3F)CC2)cc1 (stereo not drawn) | 64 mg/L (≈ 111 µM) | 0.0625 mg/L (≈ 0.108 µM) | 0.25 mg/L (≈ 0.432 µM) | 1 mg/L (≈ 1.73 µM) | 0.25 mg/L (≈ 0.432 µM) | 0.25 mg/L (≈ 0.432 µM) | 0.25 mg/L (≈ 0.432 µM) | 4 mg/L (≈ 6.91 µM)
15 | Cc1ccc(/C=C/C(=O)Nc2ccc(N3CCN(CC(O)(Cn4cncn4)c4ccc(F)cc4F)CC3)cc2)cc1 (stereo not drawn) | 64 mg/L (≈ 115 µM) | 0.0625 mg/L (≈ 0.112 µM) | 0.25 mg/L (≈ 0.448 µM) | 1 mg/L (≈ 1.79 µM) | 0.0156 mg/L (≈ 0.0279 µM) | 0.25 mg/L (≈ 0.448 µM) | 0.25 mg/L (≈ 0.448 µM) | 16 mg/L (≈ 28.6 µM)
16 | O=C(/C=C/c1ccccc1[N+](=O)[O-])Nc1ccc(N2CCN(CC(O)(Cn3cncn3)c3ccc(F)cc3F)CC2)cc1 (stereo not drawn) | > 64 mg/L | 0.0156 mg/L (≈ 0.0265 µM) | 0.25 mg/L (≈ 0.424 µM) | 1 mg/L (≈ 1.7 µM) | 0.0625 mg/L (≈ 0.106 µM) | 0.0625 mg/L (≈ 0.106 µM) | 0.25 mg/L (≈ 0.424 µM) | 4 mg/L (≈ 6.78 µM)
